In the CheMixHub viscosity set:

Assay: xn = mol fraction of the nth substance listed

c1ccc(Nc2ccccc2)cc1 + CCN(CC)c1ccccc1
viscosity [mPa·s], 101 kPa
Conditions | x1 = 0.1169 | x1 = 0.2161 | x1 = 0.4308 | x1 = 0.5654 | x1 = 0.6688 | x1 = 0.7545 | x1 = 0.8327 | x1 = 0.949
298.15 K | 2.41 | 2.98 | 4.63 | 6.52 | 8.13 | – | – | –
323.15 K | 1.35 | 1.58 | 2.22 | 2.9 | 3.31 | 3.82 | 4.49 | 5.4

NCCO.O=CO + CCO
viscosity [mPa·s], 101 kPa
Conditions | x2 = 0.6996 | x2 = 0.7776 | x2 = 0.8461 | x2 = 0.9031 | x2 = 0.9294 | x2 = 0.9544 | x2 = 0.9779
293.15 K | 12.34 | 7.77 | 5.01 | 3.318 | 2.76 | 2.28 | 1.86
298.15 K | 10.54 | 6.762 | 4.44 | 3 | 2.502 | 2.064 | 1.71
303.15 K | 9.078 | 5.97 | 3.984 | 2.73 | 2.268 | 1.902 | 1.584

O=Cc1ccccc1 + CCO
298.15 K, 101.33 kPa
Conditions | viscosity [mPa·s]
x1 = 0.05414 | 1.092
x1 = 0.08518 | 1.052
x1 = 0.1016 | 1.05
x1 = 0.1182 | 1.051
x1 = 0.1595 | 1.031
x1 = 0.1727 | 1.041
x1 = 0.3372 | 1.158
x1 = 0.6248 | 1.308
x1 = 0.8076 | 1.362

Cc1ccc(C)cc1 + CCOC(C)=O
Conditions | viscosity [mPa·s]
298.15 K, 101 kPa, x2 = 0.044 | 0.601
298.15 K, 101 kPa, x2 = 0.1503 | 0.572
298.15 K, 101 kPa, x2 = 0.2506 | 0.547
298.15 K, 101 kPa, x2 = 0.3502 | 0.525
298.15 K, 101 kPa, x2 = 0.4374 | 0.507
298.15 K, 101 kPa, x2 = 0.4986 | 0.496
298.15 K, 101 kPa, x2 = 0.5505 | 0.487
298.15 K, 101 kPa, x2 = 0.6473 | 0.472
298.15 K, 101 kPa, x2 = 0.7519 | 0.457
298.15 K, 101 kPa, x2 = 0.8485 | 0.444
298.15 K, 101 kPa, x2 = 0.9426 | 0.434
303.15 K, 101.32 kPa, x2 = 0.0624 | 0.555
303.15 K, 101.32 kPa, x2 = 0.1828 | 0.534
303.15 K, 101.32 kPa, x2 = 0.2938 | 0.516
303.15 K, 101.32 kPa, x2 = 0.4031 | 0.498
303.15 K, 101.32 kPa, x2 = 0.5056 | 0.481
303.15 K, 101.32 kPa, x2 = 0.552 | 0.474
303.15 K, 101.32 kPa, x2 = 0.6041 | 0.465
303.15 K, 101.32 kPa, x2 = 0.6976 | 0.45
303.15 K, 101.32 kPa, x2 = 0.7887 | 0.436
303.15 K, 101.32 kPa, x2 = 0.8757 | 0.423
303.15 K, 101.32 kPa, x2 = 0.9585 | 0.411
308.15 K, 101 kPa, x2 = 0.044 | 0.527
308.15 K, 101 kPa, x2 = 0.1503 | 0.506
308.15 K, 101 kPa, x2 = 0.2506 | 0.488
308.15 K, 101 kPa, x2 = 0.3502 | 0.471
308.15 K, 101 kPa, x2 = 0.4374 | 0.457
308.15 K, 101 kPa, x2 = 0.4986 | 0.448
308.15 K, 101 kPa, x2 = 0.5505 | 0.44
308.15 K, 101 kPa, x2 = 0.6473 | 0.427
308.15 K, 101 kPa, x2 = 0.7519 | 0.414
308.15 K, 101 kPa, x2 = 0.8485 | 0.403
308.15 K, 101 kPa, x2 = 0.9426 | 0.393
313.15 K, 101.32 kPa, x2 = 0.2063 | 0.481
313.15 K, 101.32 kPa, x2 = 0.4077 | 0.45
313.15 K, 101.32 kPa, x2 = 0.5061 | 0.435
313.15 K, 101.32 kPa, x2 = 0.5991 | 0.423
313.15 K, 101.32 kPa, x2 = 0.8016 | 0.395
